This note sets out measurements from US20240217954A1, “CRYSTAL FORM IV OF ORGANIC ACID SALTS OF MELANOCORTIN RECEPTOR AGONIST COMPOUND, AND PREPARATION METHOD THEREOF” (LG CHEM, LTD., priority 2021, published 2024).

Like-named read-outs stand apart in the source and are kept apart here.

The series is described as follows: Solubility assessment: visual, by final volume of water added until the sample is completely dissolved. As to the method:
Solubility indicates the result of measurement based on the final volume of water added to a sample when it is visually confirmed that the sample is completely dissolved by adding water to the sample. The solubility of the actual sample may be higher than the measured solubility. Solubility was measured based on the final volume of water added to a sample when it was visually confirmed that the sample was completely dissolved by adding water to the sample.

Setting [1] is: in water, visual complete dissolution, actual solubility may be higher than measured.

On to `CC(O)C(=O)O.CC1CCC(N(C(=O)C(C)C)[C@H]2C[C@@H](C(=O)N3CCOCC3)N(C(=O)[C@@H]3CN(C(C)(C)C)C[C@H]3c3ccc(Cl)cc3)C2)CC1` (stereo partly drawn) [Example 1, N-((3S,5S)-1-((3S,4R)-1-(tert-butyl)-4-(4-chlorophenyl)pyrrolidine-3-carbonyl)-5-(morpholine-4-carbonyl)pyrrolidin-3-yl)-N-((1 s,4R)-4-methylcyclohexyl)isobutyramide lactate], for which, under setting [1], the solubility entry was “more than 24 mg/mL”.
For the compound `CC(C)C(=O)N([C@H]1C[C@@H](C(=O)N2CCOCC2)N(C(=O)[C@@H]2CN(C(C)(C)C)C[C@H]2c2ccc(Cl)cc2)C1)[C@H]1CC[C@@H](C)CC1.O=S(=O)(O)c1ccccc1` [Example 2, N-((3S,5S)-1-((3S,4R)-1-(tert-butyl)-4-(4-chlorophenyl)pyrrolidine-3-carbonyl)-5-(morpholine-4-carbonyl)pyrrolidin-3-yl)-N-((1 s,4R)-4-methylcyclohexyl)isobutyramide benzene sulfonate], under setting [1], the solubility entry is reported as “more than 1 mg/mL”.
Take `CC(C)C(=O)N([C@H]1C[C@@H](C(=O)N2CCOCC2)N(C(=O)[C@@H]2CN(C(C)(C)C)C[C@H]2c2ccc(Cl)cc2)C1)[C@H]1CC[C@@H](C)CC1.Cc1ccc(S(=O)(=O)O)cc1` [Example 3, N-((3S,5S)-1-((3S,4R)-1-(tert-butyl)-4-(4-chlorophenyl)pyrrolidine-3-carbonyl)-5-(morpholine-4-carbonyl)pyrrolidin-3-yl)-N-((1 s,4R)-4-methylcyclohexyl)isobutyramide toluene sulfonate]: the solubility result is “more than 10 mg/mL”.
